Legend:
tyrosinase [1] = assay: Tyrosinase assay on conditioned media; assay type: cell-based; details: conditioned media of treated cells
tyrosinase [2] = molecular target: T1, tyrosinase (Mus musculus, UniProt P11344); assay: Tyrosinase assay on pre-lysed cells; assay type: biochemical; details: pre-lysed cells treated with compound
T1 construct: tyrosinase assay on cell lysates derived from whole cells; endogenous in cells; host or cells: melanocytes
T1 sequence (P11344 19-533): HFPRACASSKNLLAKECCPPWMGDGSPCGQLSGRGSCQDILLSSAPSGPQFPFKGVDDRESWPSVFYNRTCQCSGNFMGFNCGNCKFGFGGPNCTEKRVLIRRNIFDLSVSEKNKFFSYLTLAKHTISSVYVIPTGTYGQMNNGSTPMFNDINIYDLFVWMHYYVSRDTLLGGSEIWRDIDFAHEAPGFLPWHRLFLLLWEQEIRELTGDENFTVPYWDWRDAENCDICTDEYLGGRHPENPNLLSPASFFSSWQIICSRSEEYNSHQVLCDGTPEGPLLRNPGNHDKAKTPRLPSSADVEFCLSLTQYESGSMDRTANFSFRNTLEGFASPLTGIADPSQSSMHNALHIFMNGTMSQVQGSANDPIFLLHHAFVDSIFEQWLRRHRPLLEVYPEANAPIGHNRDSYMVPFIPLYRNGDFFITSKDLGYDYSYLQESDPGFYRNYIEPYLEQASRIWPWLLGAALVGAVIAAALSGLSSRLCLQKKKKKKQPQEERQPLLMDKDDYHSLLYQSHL

melan-a melanocytes = assay: Melanin assay / pigmentation of cultured melanocytes; assay type: cell-based, mouse
Method: The numbers above the bars indicate the percent increase in melanin production relative to the untreated control. For this assay, melan-a melanocytes were cultured in DMEM supplements with 10% FCS, 1% L-glutamine, 1% penicillin/streptomycin, and 40 nM TPA. The cultures were maintained at 37° C., 5% CO2. The cells were seeded at 5×10^4 cells per well in 24 well plates and treated for 72 hours. Photographs were taken after 72 hours at 40× magnification. The cells were harvested, centrifuged, and the protein was extracted from the pellet with 1:1 ethanol:ether. The melanin pellets were solubilized in 20% DMSO/2N NaOH. Samples were transferred to a 96-well plate and the optical density was read at 490 nm using a Biorad 550 spectrophotometer.
The cells were rinsed with phosphate buffered saline (PBS) and lysed with an extraction buffer of […] Tris, pH 7.5; 2 mM ethylenediamine tetraacetic acid (EDTA), pH 7.8; 150 mM NaCl; 1% Titron X-100, with protease inhibitor cocktail at 4° C. The cell extracts were then spun at 12,000 rpm for 10 minutes at 4° C. The remaining pellet was assayed for melanin by rinsing twice with ethanol-ether (1:1) and dissolving in 200 microL of 2N NaOH in 20% DMSO at 60° C. A 100 microL aliquot of the resulting solution was then measured for absorbance at […].

[3] = molecular target: T2, mitochondrial F1F0 ATPase (Mus musculus, UniProt P56480+Q03265+Q9CR84); assay: Affinity chromatography on immobilized PPA (PPA-Affi) with competition, melanocyte extracts; assay type: binding; details: for competition with ATPase binding to PPA affinity matrix: melan-a extracts, competitor 30 minutes at 4° C., antibodies to beta and alpha subunits
T2 construct: endogenous in cells; host or cells: Melan-a murine melanocytes
Method: Melanocyte extracts were incubated with PPA-Affi in the presence of the compounds shown. After extensive washing, bound proteins were then eluted with SDS-containing buffer and subjected to SDS-PAGE and silver staining. […] The binding of mitochondrial ATPase was inhibited not only by PPA itself but also by oligomycin, a known mitochondrial ATPase inhibitor.
FIG. 5 is another illustration that mitochondrial ATPase is the target of PPA. The experimental protocol were similar to those described above, but rather than silver stain, immunoblotting was conducted with antibodies to the beta and alpha subunits of the mitochondrial ATPase. The primary antibody in A was anti-F1-ATPase beta subunit antibody (1:2500, 1 hour), and the primary antibody in B was anti-ATPase alpha subunit antibody (1:2500, 1 hour). The secondary antibody was anti-mouse Goat IgG (1:2500, 1 hour).
For this experiment, the cell source was Melan-a (murine melanocyte). The reaction volume was 147 microL of protein extract (0.3 mg/mL)+147 microL bead buffer+6 microL competitor (aurovertin or PPA6 or DMSO). The competition took place for 30 minutes at 4° C. with rocking. The bead volume was 40 microL of 50% slurry. The beads were washed with 1 mL bead buffer seven times. Elution was with 40 microL+30 microL Laemmli buffer, heating for 4 minutes at 90° C.
For the gel electrophoresis, the gel was 10% SDS-PAGE gel, 20-well combination. The loading volume was 25 microL (2nd elution). Running was 30V, overnight.
Protein was extracted from cells by incubation with extraction buffer (1 mM CaCl2, 150 mM NaCL; 10 mM Tris, pH 7.4; 1% Triton X-100, 1 mM PMSF plus protease inhibitor cocktail (Roche, NJ, USA) for five minutes on ice. Crude lysate was centrifuged at 13,000 rpm for ten minutes. The protein concentration of the supernatant was measured by the Bradford assay (Bio-Rad, CA) and adjusted to a final concentration of 1 microg/microL prior to affinity chromatography. […]

[4] = molecular target: T3, mitochondrial ATPase (beta subunit, OSCP) (Homo sapiens, UniProt P05496+P06576+P48047); assay: PPA-Affi affinity binding and competition, SK Mel19 extracts; details: SK Mel19 protein extract
T3 construct: Using human melanoma cell source SK Mel 19, the reaction volume was 147 microL of protein extract; endogenous in cells; host or cells: SK Mel19 human melanoma cells
Method: (§1) Using human melanoma cell source SK Mel 19, the reaction volume was 147 microL of protein extract (1.0 mg/mL)+147 microL bead buffer+6 microL competitor (oligomycin) or S+DMSO. Competition was effected for 30 minutes at 4° C. with rocking. The bead volume was 40 microL of 50% slurry. Washing was five times with 1 mL bead buffer, and elution was with 40 microL Laemmli buffer, with heating for 4 minutes at 90° C. Gel electrophoresis was with 10% SDS-PAGE gel, 20 well combination. Loading volume was 35 microL, and running was 30V, overnight.
as §1, with “99” for “147”, “mg/mL)+99” for “mg/mL)+147”, “buffer+2” for “buffer+6”, “DMSO. Incubation” for “S+DMSO. Competition”, “100V for one hour.” for “30V, overnight.”

Row | Compound | secreted tyrosinase activity (tyrosinase [1]) | tyrosinase activity (tyrosinase [2]) | pigmentation (melanin production) (melan-a melanocytes) | competition with ATPase binding to PPA affinity matrix [3] | inhibition of binding of mitochondrial ATPase to PPA-Affi ([3]; melanocyte extracts, SDS-PAGE and silver staining) | elution of beta subunit and OSCP bound to PPA-Affi [4]
1 | CC(C)Cn1c(=O)n(C)c(=O)c2[nH]cnc21 [IBMX, 3-Isobutyl-1-methylxanthine] | large increase in secreted enzyme activity | only a marginal change | – | – | – | –
2 | NC(=S)Nc1ccccc1 [PTU, phenylthiourea] | – | significant decrease in tyrosinase activity | – | – | – | –
3 | CC[C@H]1O[C@]2(C)[C@H](OC(C)=O)[C@@]1(C)O[C@@H](/C=C/C=C/C=C/c1oc(=O)cc(OC)c1C)[C@@H]2O [aurovertin, aurovertin B] | – | – | promote pigmentation | do not compete | – | –
4 | CC[C@H]1/C=C/C=C/C[C@@H](C)[C@H](O)[C@@](C)(O)C(=O)[C@@H](C)[C@H](O)[C@@H](C)C(=O)[C@@H](C)[C@H](O)[C@@H](C)/C=C/C(=O)O[C@@H]2[C@H](C)[C@H](CC1)O[C@]1(CC[C@H](C)[C@H](C[C@@H](C)O)O1)[C@H]2C [oligomycin, Oligomycin] | – | – | promote pigmentation | competed with ATPase binding | inhibited | eluted by oligomycin
